Assays:
androgen receptor = target: T1, androgen receptor (Homo sapiens, UniProt P10275); assay: PSA promoter luciferase reporter assay in 103E cells (AR transcriptional activity); settings: for IC50: read-out: IC50 of AR activity, 20 h, luciferase; for inhibition of AR activity: 50 μM, 20 h
T1 sequence (P10275 with tags, fused parts or gaps DUP590-628/H875Y): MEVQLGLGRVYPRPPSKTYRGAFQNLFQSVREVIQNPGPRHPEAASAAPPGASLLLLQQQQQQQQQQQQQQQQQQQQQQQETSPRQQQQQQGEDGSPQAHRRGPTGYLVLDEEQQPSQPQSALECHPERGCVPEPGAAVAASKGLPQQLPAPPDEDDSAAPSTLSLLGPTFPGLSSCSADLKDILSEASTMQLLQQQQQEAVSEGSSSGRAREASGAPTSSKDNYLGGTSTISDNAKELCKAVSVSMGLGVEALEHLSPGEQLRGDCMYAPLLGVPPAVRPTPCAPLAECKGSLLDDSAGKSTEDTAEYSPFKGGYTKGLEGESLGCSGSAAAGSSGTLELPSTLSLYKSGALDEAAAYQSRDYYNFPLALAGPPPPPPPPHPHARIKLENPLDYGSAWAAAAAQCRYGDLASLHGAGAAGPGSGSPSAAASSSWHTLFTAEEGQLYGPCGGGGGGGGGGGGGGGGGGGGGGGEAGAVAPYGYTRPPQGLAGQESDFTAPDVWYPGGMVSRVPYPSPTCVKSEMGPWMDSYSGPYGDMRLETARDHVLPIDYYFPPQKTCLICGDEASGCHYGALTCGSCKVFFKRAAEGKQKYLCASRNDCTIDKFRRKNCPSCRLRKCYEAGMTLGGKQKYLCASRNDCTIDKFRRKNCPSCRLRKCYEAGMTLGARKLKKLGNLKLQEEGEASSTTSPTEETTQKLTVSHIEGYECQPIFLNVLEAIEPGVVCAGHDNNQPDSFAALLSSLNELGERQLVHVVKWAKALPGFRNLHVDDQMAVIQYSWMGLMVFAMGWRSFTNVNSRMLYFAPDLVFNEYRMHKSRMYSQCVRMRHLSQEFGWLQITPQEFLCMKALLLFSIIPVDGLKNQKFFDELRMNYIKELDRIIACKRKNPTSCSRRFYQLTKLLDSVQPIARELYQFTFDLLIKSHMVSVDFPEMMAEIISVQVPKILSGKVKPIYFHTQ
Experimental: PC-3 and NIH-3T3 were cultured in DMEM (Hyclone) supplemented with 10% FBS. Cultures were maintained in a humidified incubator at 37° C. in 5% CO2/air.
Cells were treated with various compounds for a period of 20 h and luciferase activity was measured using a luciferase reporter gene assay system (Promega).

PC-3 cells = assay: Cell cycle distribution by propidium iodide flow cytometry; format: cell-based, human; settings: 48 h
Experimental: (§1) The cell cycle of treated cells was examined by flow cytometry after cellular staining with propidium iodide. 5×10^5 cells were seeded into 6-well multidishes with 10% FBS culture medium for 48 h. […] Cells were trypsinized thereafter, washed twice with cold PBS, and centrifuged. The pellet was suspended in cold PBS and 1 mL of 70% ethanol at 4° C. overnight, washed twice with cold PBS, and digested with RNase (100 μg/mL final concentration) and stained with propidium iodide (10 μg/mL final concentration) for 30 min and analyzed by flow cytometry (EPICS XL-MCL, Beckman Coulter, Inc., Fullerton, Calif.).

LNCaP cells = assay: as above; format: cell-based, human; settings: 48 h
Experimental: as §1

22Rv1 cells = assay: as above; format: cell-based, human; settings: 48 h
Experimental: as §1

CC(C)c1cc2c(cc1O)[C@@]1(C)CCCC(C)(C)[C@@H]1CC2=O [Compound 3]
Inhibitionmax (%) of AR activity (androgen receptor; maximal inhibition at 25 μM): 100 ± 1% (25 μM)
IC50 (androgen receptor): 2.64 µM

CC(C)c1cc2c(cc1O)[C@@]1(C)CCCC(C)(C)[C@@H]1CC2 [Compound 4]
Inhibitionmax (%) of AR activity (androgen receptor; maximal inhibition at 25 μM): 100 ± 1% (25 μM)
IC50 (androgen receptor): 12 µM

CC(C)c1cc2c(cc1O)[C@@]1(C)CCCC(C)(C)[C@@H]1C(=O)C2=O [Compound 7]
Inhibitionmax (%) of AR activity (androgen receptor; maximal inhibition at 25 μM): 100 ± 1% (25 μM)
IC50 (androgen receptor): 12.9 µM

C=C1CC[C@@H]2[C@](C)(CCC[C@]2(C)C(=O)O)[C@H]1CC/C(C)=C/CO [Compound 8, isocupressic acid]
inhibition of AR activity (androgen receptor): 87%
Inhibitionmax (%) of AR activity (androgen receptor; maximal inhibition at 50 μM): 87 ± 3% (50 μM)
IC50 (androgen receptor): 22.7 µM

COc1c(C(C)C)cc2c(c1O)[C@@]1(C)CCCC(C)(C)[C@@H]1CC2=O [Compound 1]
inhibition of AR activity (androgen receptor): approximately 70%
Inhibitionmax (%) of AR activity (androgen receptor; maximal inhibition at 50 μM): 77 ± 2% (50 μM)
IC50 (androgen receptor): 8.62 µM

CC(O)(CS(=O)(=O)c1ccc(F)cc1)C(=O)Nc1ccc(C#N)c(C(F)(F)F)c1 (centres unmarked) [CASODEX, bicalutamide, reference compound]
G0-G1 phase cell population (PC-3 cells; PC-3, 1 μM): 51.1 ± 3.6 %
G2-M phase cell population (PC-3 cells; PC-3, 1 μM): 24.4 ± 2.5 %
S phase cell population (PC-3 cells; PC-3, 1 μM): 18.5 ± 2.1 %
Sub-G1 phase cell population (PC-3 cells; PC-3, 1 μM): 2.3 ± 1.5 %
G0-G1 phase cell population (PC-3 cells; PC-3, 10 μM): 51.0 ± 2.1 %
G2-M phase cell population (PC-3 cells; PC-3, 10 μM): 25.2 ± 2.1 %
S phase cell population (PC-3 cells; PC-3, 10 μM): 19.0 ± 1.3 %
Sub-G1 phase cell population (PC-3 cells; PC-3, 10 μM): 1.8 ± 1.4 %
G0-G1 phase cell population (LNCaP cells; 1 μM): 62.1 ± 3.5 %
G2-M phase cell population (LNCaP cells; 1 μM): 21.8 ± 2.0 %
S phase cell population (LNCaP cells; 1 μM): 10.1 ± 1.7 %
Sub-G1 phase cell population (LNCaP cells; 1 μM): 1.0 ± 0.5 %
G0-G1 phase cell population (LNCaP cells; 10 μM): 61.3 ± 3.4 %
G2-M phase cell population (LNCaP cells; 10 μM): 22.3 ± 1.7 %
S phase cell population (LNCaP cells; 10 μM): 10.4 ± 1.5 %
Sub-G1 phase cell population (LNCaP cells; 10 μM): 1.3 ± 0.8 %
G0-G1 phase cell population (22Rv1 cells; 22Rv1, 1 μM): 53.5 ± 2.6 %
G2-M phase cell population (22Rv1 cells; 22Rv1, 1 μM): 25.0 ± 1.6 %
S phase cell population (22Rv1 cells; 22Rv1, 1 μM): 13.5 ± 2.3 %
Sub-G1 phase cell population (22Rv1 cells; 22Rv1, 1 μM): 1.5 ± 1.1 %
G0-G1 phase cell population (22Rv1 cells; 22Rv1, 10 μM): 53.0 ± 3.2 %
G2-M phase cell population (22Rv1 cells; 22Rv1, 10 μM): 25.4 ± 1.0 %
S phase cell population (22Rv1 cells; 22Rv1, 10 μM): 12.2 ± 1.8 %
Sub-G1 phase cell population (22Rv1 cells; 22Rv1, 10 μM): 2.3 ± 1.8 %

CC(C)c1cc2c(cc1O)[C@@]1(C)CCCC(C)(C)[C@H]1OC2=O [Compound 5]
inhibition of AR activity (androgen receptor): less than 20%
Inhibitionmax (%) of AR activity (androgen receptor; maximal inhibition at 50 μM): 19 ± 6% (50 μM)

CC(C)C1=C[C@]2(O)CC[C@H]3C(C)(C)CCC[C@]3(C)C2=CC1=O [Compound 6]
inhibition of AR activity (androgen receptor): approximately 70%
Inhibitionmax (%) of AR activity (androgen receptor; maximal inhibition at 50 μM): 68 ± 6% (50 μM)
IC50 (androgen receptor): 17.6 µM
